Measurements: publication PMC11451537, “P2X7 receptors exhibit at least three modes of allosteric antagonism” (Science Advances, 2024)
Like-named read-outs stand apart in the source and are kept apart here.

Key:
hP2X3 = biological target: T1, hP2X3 (Homo sapiens, UniProt P56373); experiment: TEVC inhibition dose-response (IC50), hP2X3 in Xenopus laevis oocytes; format: cell-based; details: 1 μM ATP, mean ± SD, triplicate
T1 construct: The hP2X1-WT, hP2X2-WT, hP2X3-WT, hP2X4-WT, and hP2X7-WT constructs used for electrophysiology are similarly unmodified full-length, wild-type receptor constructs; expressed in transfected cells; host or cells: Xenopus laevis oocytes injected with mRNA made from pcDNA3.1x
T1 sequence (P56373 1-397): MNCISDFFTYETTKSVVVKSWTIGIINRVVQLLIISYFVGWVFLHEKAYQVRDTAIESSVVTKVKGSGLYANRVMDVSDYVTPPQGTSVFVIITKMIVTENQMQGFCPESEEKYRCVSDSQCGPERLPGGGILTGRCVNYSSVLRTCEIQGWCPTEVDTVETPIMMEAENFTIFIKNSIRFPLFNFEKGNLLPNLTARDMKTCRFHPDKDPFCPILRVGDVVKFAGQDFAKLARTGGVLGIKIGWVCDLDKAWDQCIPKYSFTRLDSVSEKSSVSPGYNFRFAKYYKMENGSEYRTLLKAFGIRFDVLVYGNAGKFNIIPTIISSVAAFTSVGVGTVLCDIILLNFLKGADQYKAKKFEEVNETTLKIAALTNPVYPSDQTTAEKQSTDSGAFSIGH
Text: To evaluate the inhibitory response of an antagonist for a dilution series, an initial excitatory signal was evoked at a subtype-specific concentration of ATP. Next, the antagonist was applied at a test concentration for 60 s and then coapplied at the same test concentration of the antagonist with the identical subtype-specific concentration of ATP. The antagonized signal was then normalized against the preceding excitatory signal evoked by ATP for each individual oocyte tested. The pre- and post-antagonist signals were evoked by 10 μM ATP for hP2X1, 10 μM ATP for hP2X2, 1 μM ATP for hP2X3, 50 μM ATP for hP2X4, and 100 μM ATP for P2X7. For the K297V mutation in rP2X7, pre- and post-antagonist signals were evoked by 300 μM ATP. Each dataset was then fit to a nonlinear regression named “[inhibitor] vs. response – Variable slope (four parameters)” in GraphPad Prism 9 to produce a sigmoidal curve and afford an IC50 value. Each singular condition was used to generate an average which is reported plus or minus its SD between three discrete trials.

rP2X7 = biological target: T2, rP2X7 (Rattus norvegicus, UniProt Q64663); experiment: Bio-layer interferometry (BLI), biotinylated rP2X7 on streptavidin biosensors, 2:1 Langmuir fit; format: binding; details: for kon: pH 7.4, 2:1 Langmuir model, 600-s association
T2 sequence (Q64663 1-595): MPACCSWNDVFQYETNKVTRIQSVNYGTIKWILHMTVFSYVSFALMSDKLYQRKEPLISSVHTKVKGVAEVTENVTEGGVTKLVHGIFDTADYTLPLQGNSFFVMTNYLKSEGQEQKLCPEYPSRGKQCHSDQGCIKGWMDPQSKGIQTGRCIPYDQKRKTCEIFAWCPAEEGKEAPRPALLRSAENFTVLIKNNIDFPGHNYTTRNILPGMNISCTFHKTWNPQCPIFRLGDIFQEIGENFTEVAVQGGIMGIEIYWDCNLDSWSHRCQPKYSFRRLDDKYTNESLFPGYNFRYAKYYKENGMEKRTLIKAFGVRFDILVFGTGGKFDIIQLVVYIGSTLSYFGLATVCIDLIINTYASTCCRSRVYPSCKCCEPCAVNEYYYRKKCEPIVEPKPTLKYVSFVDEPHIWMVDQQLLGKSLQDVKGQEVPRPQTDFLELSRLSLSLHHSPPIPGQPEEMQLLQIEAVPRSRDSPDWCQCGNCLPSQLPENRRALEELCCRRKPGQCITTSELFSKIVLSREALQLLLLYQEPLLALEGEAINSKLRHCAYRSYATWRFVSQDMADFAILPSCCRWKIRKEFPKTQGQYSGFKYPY
Method: Using a HiTrap desalting column (Cytiva), 1 ml of diluted purified rP2X7 was desalted into PBS buffer (pH 7.4). Protein-containing fractions were combined and concentrated before adjusting the pH to 8.0 with NaHCO3. NHS-PEG12-Biotin (Thermo Fisher Scientific) was added and incubated at 23°C for 60 min while shaking. PBS was used to dilute the biotinylated sample before four cycles of dilution and concentration to ensure the removal of free NHS-PEG12-Biotin via a 100-kDa concentrator (Millipore Sigma). After the final cycle, the absorbance at 280 nm of the concentrated sample was taken to quantify the amount of biotinylated rP2X7.
A ForteBio Octet RED384 instrument with ForteBio Data Acquisition software 11.0 was used to carry out BLI experiments. The assays were performed at 30°C using 384-well tilted-bottom plates (Sartorius) while orbital shaking at 1000 RPM. Running buffer consisting of filtered (0.22 μm) PBS (pH 7.4) with 0.5 mM DDM (Anatrace). Streptavidin (SA) biosensor tips (Sartorius) were pre-equilibrated in running buffer for 20 min and loaded with 50 μg ml^−1 of biotinylated rP2X7 ligand or biocytin (Sigma-Aldrich) control for 1800s. Blocking of the loaded SA sensors using 100 μg ml^−1 of biocytin was then initiated for 150 s before washing with a running buffer for 60 s. A baseline of loaded sensors was taken in the running buffer for 120 s before dipping them into wells containing ligand dilutions (0.37 to 10 μM for methyl blue) for 600 s, and then returning the sensors to the running buffer for a 600-s disassociation step. Rate constants for association and disassociation were determined using ForteBio Data Analysis HT 11.0 evaluation software. The raw data were double reference subtracted for maximal signal between the large ligand and small analyte. Biocytin controls were the first subtraction across analyte concentrations, and the zero-analyte concentration was the second. The association rate constant (ka) and the dissociation rate constant (kd) were calculated for each interaction pair using an average of three independent assays containing at least four different concentrations that were globally fit to a 2:1 Langmuir binding model. Equilibrium dissociation constants (KD) were calculated as the ratio of kd to ka. The KD1, KD2, ka1, ka2, kd1, and kd2 values are reported as the average ± the SD of three replicate datasets for each analyte, with each dataset using at least four independent traces. The analyzed data were exported and plotted in GraphPad Prism 9.0.

[1] = 2:1 Langmuir model, 600-s dissociation

O=S(=O)(O)c1ccc(N=C2C=CC(=C(c3ccc(Nc4ccc(S(=O)(=O)O)cc4)cc3)c3ccc(Nc4ccc(S(=O)(=O)O)cc4)cc3)C=C2)cc1 [methyl blue]
IC50 (hP2X3): 4 ± 1 µM
share of signal of the high-affinity component (KD1) (rP2X7; 2:1 Langmuir model): 67 ± 8%
share of signal of the low-affinity component (KD2) (rP2X7; 2:1 Langmuir model): 33 ± 8%
Kd (rP2X7; 2:1 Langmuir model, 30°C, PBS pH 7.4 with 0.5 mM DDM, ratio of kd to ka, read-out: KD1 (high-affinity binding component)): 0.26 ± 0.13 µM
rate constant for dissociation kd1 (rP2X7; [1]): 1.1 ± 0.5 × 10^−4 s^−1
rate constant for dissociation kd2 (rP2X7; [1]): 1.3 ± 0.1 × 10^−2 s^−1
kon (rP2X7; read-out: rate constant for association ka1): 450 ± 2000 M⁻¹ s⁻¹
kon (rP2X7; read-out: rate constant for association ka2): 9300 ± 2.3e+06 M⁻¹ s⁻¹
Kd (rP2X7; read-out: KD2 (low-affinity binding component), 2:1 Langmuir model, 30°C, PBS pH 7.4 with 0.5 mM DDM, ratio of kd to ka): 1.5 ± 0.2 µM
